Test results taken from ChEMBL document CHEMBL5523716, “Discovery of novel EGFR-PROTACs capable of degradation of multiple EGFR-mutated proteins” (Eur J Med Chem, 2024).
Activity calls are given as the source filed them. No cut-off for these calls is given here.

Tests used:
[1] = MRT (0 to t) in SPF ICR mouse at 2 mg/kg,iv measured upto 24 hrs by LC-MS/MS analysis; type: ADME, organism-based; details: in vivo
[2] = MRT (0 to t) in SPF ICR mouse at 5 mg/kg,ip measured upto 24 hrs by LC-MS/MS analysis; type: ADME, organism-based; details: in vivo
[3] = Metabolic stability in human liver microsomes assessed as half-life at 1 uM incubated upto 60 mins in presence of NADPH by LC-MS/MS analysis; type: ADME, Microsome
[4] = Half life in SPF ICR mouse at 2 mg/kg,iv measured upto 24 hrs by LC-MS/MS analysis; type: ADME, organism-based; details: in vivo
[5] = system: von Hippel-Lindau disease tumor suppressor/Epidermal growth factor receptor (Homo sapiens), P00533+P40337 [L858R,T790M,C797S]; assay: PROTAC activity at VHL/EGFR L858R/T790M/C797S mutant in human H1975-TM cells assessed as induction of EGFR degradation at 2.5 uM Western blot analysis; type: cell-based; details: TDE = time-dependent effect
[6] = system: von Hippel-Lindau disease tumor suppressor/Epidermal growth factor receptor (Homo sapiens), P00533+P40337 [L858R,T790M,C797S]; assay: PROTAC activity at VHL/EGFR L858R/T790M/C797S mutant in human H1975-TM cells assessed as downregulation of EGFR phosphorylation incubated for 48 hrs by Western blot analysis; type: cell-based
H1975-TM [7] = assay: Antitumor activity against human H1975-TM cells xenografted in BALB/c mouse assessed as downregulation of AKT phosphorylation in tumor at 5 to 20 mg/kg,ip once daily for 14 days by Western blot analysis; type: functional, organism-based; details: dose 5-20 mg/kg, time 14.0 day
[8] = Metabolic stability in human liver microsomes assessed as elimination rate constant at 1 uM incubated upto 60 mins in presence of NADPH by LC-MS/MS analysis; type: ADME, Microsome
[9] = Tmax in SPF ICR mouse at 5 mg/kg,ip measured upto 24 hrs by LC-MS/MS analysis; type: ADME, organism-based; details: in vivo
[10] = system: von Hippel-Lindau disease tumor suppressor/Epidermal growth factor receptor (Homo sapiens), P00533+P40337 [UNDEFINED MUTATION]; assay: PROTAC activity at VHL/EGFR Del19 mutant in human HCC827 cells assessed as downregulation of EGFR phosphorylation incubated for 72 hrs by Western blot analysis; type: cell-based
NCI-H1975 = assay: Antitumor activity against human NCI-H1975 cells xenografted in BALB/c mouse assessed as tumor growth inhibition at 20 mg/kg,ip once daily for 22 days relative to control; type: functional; details: NCI-H1975, 528 h, time 22 day, read-out: TGI
H1975-TM [11] = assay: Antitumor activity against human H1975-TM cells xenografted in BALB/c mouse assessed as increase in EGFR degradation in tumor at 5 to 20 mg/kg,ip once daily for 14 days by Western blot analysis; type: functional, organism-based; details: dose 5-20 mg/kg, time 14.0 day
[12] = Metabolic stability in monkey liver microsomes assessed as intrinsic clearance at 1 uM incubated upto 60 mins in presence of NADPH by LC-MS/MS analysis; type: ADME, Macaca mulatta, Microsome; details: rhesus monkey, read-out: CLH
[13] = Half life in SPF ICR mouse at 5 mg/kg,ip measured upto 24 hrs by LC-MS/MS analysis; type: ADME, organism-based; details: in vivo
HCC827 = assay: Antitumor activity against human HCC827 cells xenografted in BALB/c mouse assessed as tumor growth inhibition at 5 mg/kg,ip once daily for 28 days relative to control; type: functional; details: HCC827, 672 h, time 28 day, read-out: TGI
[14] = system: von Hippel-Lindau disease tumor suppressor/Epidermal growth factor receptor (Homo sapiens), P00533+P40337 [L858R,T790M]; assay: PROTAC activity at VHL/EGFR L858R/T790M mutant in human NCI-H1975 cells assessed as downregulation of EGFR phosphorylation incubated for 72 hrs by Western blot analysis; type: cell-based
H1975-TM [15] = assay: Antitumor activity against human H1975-TM cells xenografted in BALB/c mouse assessed as downregulation of EGFR phosphorylation in tumor at 5 to 20 mg/kg,ip once daily for 14 days by Western blot analysis; type: functional, organism-based; details: dose 5-20 mg/kg, time 14.0 day
[16] = system: von Hippel-Lindau disease tumor suppressor/Epidermal growth factor receptor (Homo sapiens), P00533+P40337 [L858R,T790M]; assay: PROTAC activity at VHL/EGFR L858R/T790M mutant in human NCI-H1975 cells assessed as downregulation of AKT phosphorylation incubated for 72 hrs by Western blot analysis; type: cell-based

**Q.** For `CCN(CC)C/C=C/C(=O)Nc1cc2c(Nc3ccc(F)c(Cl)c3)ncnc2cc1OCc1cn(CCCCCCCC(=O)N[C@H](C(=O)N2C[C@H](O)C[C@H]2C(=O)N[C@H](C)c2ccc(-c3scnc3C)cc2)C(C)(C)C)nn1`, which MRT last at 24 h [1] is on record?
**A.** Its MRT last at 24 h is 0.29 h.

**Q.** And the MRT last at 24 h [2]?
**A.** The MRT last at 24 h was 2.86 h.

**Q.** What about the half-life at 1 µM [3] of the same compound?
**A.** Its half-life at 1 µM is 0.275 h.

**Q.** And the half-life [4]?
**A.** Its half-life is 1.67 h.

**Q.** What about the Activity [5] of the same compound?
**A.** The Activity was “Tde”.

**Q.** What about the Activity [6] of the same compound?
**A.** Its Activity is “Dose-Dependent Effect”.

**Q.** What about the Activity (H1975-TM [7]) of the same compound?
**A.** Its Activity is “Active”.

**Q.** And the k el at 1 h, 1 µM [8]?
**A.** The k el at 1 h, 1 µM was 0.0007 s⁻¹.

**Q.** What about the Tmax [9] of the same compound?
**A.** Its Tmax is 2 h.

**Q.** And the Activity [10]?
**A.** Its Activity is “Dose-Dependent Effect”.

**Q.** And the inhibition in vivo at 20 mg/kg (NCI-H1975)?
**A.** Its inhibition in vivo at 20 mg/kg is 85%.

**Q.** And the Activity (H1975-TM [11])?
**A.** The Activity was “Active”.

**Q.** What about the microsomal CLint at 1 µM [12] of the same compound?
**A.** Its microsomal CLint at 1 µM is 36.6 µL/min/mg.

**Q.** And the half-life [13]?
**A.** Its half-life is 0.96 h.

**Q.** What about the inhibition in vivo at 5 mg/kg (HCC827) of the same compound?
**A.** The inhibition in vivo at 5 mg/kg was 88%.

**Q.** What about the Activity [14] of the same compound?
**A.** The Activity was “Dose-Dependent Effect”.

**Q.** And the Activity (H1975-TM [15])?
**A.** The Activity was “Active”.

**Q.** What about the Activity [16] of the same compound?
**A.** Its Activity is “Dose-Dependent Effect”.
